The source of these data is patent US8795632B2, “Disease animal model for chronic pain” (Astellas Pharma Inc., priority 2008, dated 2014).

In assay [1] the test system is Sprague-Dawley rats. Briefly: Skin pain sensation threshold value after reserpine single administration. Conditions: reserpine 3 mg/kg single s.c. Format: in vivo, rat. Here is the method: Measurement of the skin pain sensation threshold value was carried out in the same manner as in Example 1. That is, this was measured using a series of von Frey filaments having different diameter which can add a constant pressure. […] The von Frey filament was applied using the up and down method. That is, by firstly applying a filament of about middle diameter, a filament having one rank smaller diameter was applied when the withdrawal reaction was observed or a filament having one rank larger diameter was applied when the withdrawal reaction was not observed. The skin pain sensation threshold value at each point of time was calculated as a hind paw withdrawal reaction threshold value (g).
Influences of the reserpine single administration upon the muscle pressure pain threshold value, skin pain sensation threshold value, cold sensitivity and heat sensitivity were examined in accordance with the following protocol. A total of 12 male rats were used. The muscle pressure pain threshold value, skin pain sensation threshold value, cold sensitivity and heat sensitivity before the reserpine treatment (base lines) were measured and then they were divided into a solvent (0.5% acetic acid aqueous solution) group and a reserpine (3 mg/kg) group (the number of animals per group was 6). […] The muscle pressure pain threshold value, skin pain sensation threshold value, cold sensitivity and heat sensitivity of each rat were measured at the points of measurement time of acute phase after administration of the solvent or reserpine (2, 4, 8 and 24 hours) and chronic phase (2, 3, 5, 7, 10, 14 and 21 days).
All of the measured values were expressed as average value±standard error. Statistical significance test of the measured values between the reserpine administration groups and the solvent administration group at each point of time was carried out by the two-way analysis of variance and the Bonferroni method. Probability value (P) of less than 5% was judged as statistically significant (P<0.05 was expressed as * in the graphs).

The subject of assay [2] is Sprague-Dawley rats. Put plainly: Heat sensitivity (Hargreaves method) after reserpine single administration. Type of assay: in vivo, rat. Conditions: reserpine 3 mg/kg single s.c. Here is the method:
Measurement of the heat sensitivity was carried out by the method of Hargreaves et al. (Hargreaves et al., Pain, 32, 77-88, 1988). A transparent measuring box was put on a glass plate supported with platforms and a rat was put therein and acclimatized. A mobile infrared heat source was arranged under the glass plate and focused on the plantar surface of the right hind paw of the rat. A latency time required for the rat to show a withdrawal reaction of right hind leg from the heat source was measured as a withdrawal latency time and used as the index of heat sensitivity. According to this measuring system, shorter withdrawal latency time represents acceleration of the skin heat sensitivity.
Influences of the reserpine single administration upon the muscle pressure pain threshold value, skin pain sensation threshold value, cold sensitivity and heat sensitivity were examined in accordance with the following protocol. A total of 12 male rats were used. The muscle pressure pain threshold value, skin pain sensation threshold value, cold sensitivity and heat sensitivity before the reserpine treatment (base lines) were measured and then they were divided into a solvent (0.5% acetic acid aqueous solution) group and a reserpine (3 mg/kg) group (the number of animals per group was 6). […]
All of the measured values were expressed as average value±standard error. […]

Regarding `COC(=O)[C@H]1[C@H]2C[C@@H]3c4[nH]c5cc(OC)ccc5c4CCN3C[C@H]2C[C@@H](OC(=O)c2cc(OC)c(OC)c(OC)c2)[C@@H]1OC` [reserpine], the “time after administration at which transient acute-phase tactile allodynia recovers” value in the assay on Sprague-Dawley rats [1] stood at 4 h. Further, the “skin pain sensation threshold value” in the assay on Sprague-Dawley rats [1] (2, 3, 5, 7, 10, 14 and 21 days after administration) was “significantly reduced”; in the assay with Sprague-Dawley rats [1] (after 2 hours) it was “significantly reduced”. The “time after administration at which transient acute-phase acceleration of heat sensitivity recovers” value with Sprague-Dawley rats [2] amounted to 8 h. Moreover, the “heat sensitivity: withdrawal latency time” value with Sprague-Dawley rats [2] (2 and 4 hours and 2 and 5 days after administration) was “significantly shortened”.
